The values below come from patent publication US20010056085A1, “Methods of using vesicant drug formulations” (priority 1996, published 2001).

“Also recorded” adds a separate entry of the source.

The nature of data set [1]: Effect of UVA irradiation on the absorbance spectrum of DOX (350-600 nm; KDOX at 480 nm). Conditions: for photoenhancing effect on riboflavin-mediated UVA destruction of DOX (absorbance at 480 nm): 100 μM compound, 0.5 μM riboflavin in PBS without Ca2+ and Mg2+, 0 to 20 minutes UVA. Type of data set: physicochemical.
The nature of data set [2]: Half-life of ADR destruction by UVA light in the presence of test compounds (decrease in absorbance at 480 nm). Format: physicochemical. As to conditions: UVA light; for Half-Life of ADR Destruction, 100 μM Test Compound and 0.5 μM Riboflavin: 100 μM test compound with 0.5 μM riboflavin; for Half-Life of ADR Destruction, 100 μM Test Compound: 100 μM test compound alone.
For the next data set, the system named is P388 cells. As to the kind of experiment: In vitro cell culture assay: growth inhibitory effect of UVA-irradiated DOX solutions. Type of data set: cell-based, murine. How it is done: Cell culture was carried out as previously described (Ramu et al. [1984] Cancer Res., 44:144). Briefly, P388 murine leukemia cells (i.e., P388D1 available from the ATCC; […] An inoculum of cells was transferred to fresh medium once every 4 days to maintain exponential growth. […] Drug solutions (0.2 ml/well) in 24 well culture clusters without the lid were irradiated in a laminar flow hood with 3 Blacklight Blue 40 W lamps (Vilber Lourmat, Marne la Vallee, France).

Data set [3] deals with P388 cells and P388/ADR cells. In words: Catalase protection of cells from UVA irradiation. Format: cell-based, murine. As to conditions: 0.01 to 100 U/ml catalase in PBS or RPMI 1640.
Data set [4] concerns P388 or P388/ADR cell lines. In words: Effect of catalase on the growth inhibitory effect of DOX. Conditions: 30 U/ml catalase. Format: cell-based, murine.

`O=C(O)CN(CCN(CC(=O)O)CC(=O)O)CC(=O)O` [EDTA, ethylenediaminetetraacetic acid]: in data set [1] (20 μM DOX), the “photoenhancing effect on riboflavin-mediated UVA destruction of DOX (absorbance at 480 nm)” value (“photoenhancing effect” for short) is “enhanced”. Turning to `N[C@@H](Cc1c[nH]cn1)C(=O)O` [Histidine], in data set [2], the “Half-Life of ADR Destruction, 100 μM Test Compound and 0.5 μM Riboflavin” value was 55.2 ± 7.1 min. Also, the “photoenhancing effect” value in data set [1] (20 μM DOX) is “enhanced”.

Regarding `Cc1cc2nc3c(=O)[nH]c(=O)nc-3n(C[C@H](O)[C@H](O)[C@H](O)COP(=O)(O)O)c2cc1C` [FMN, flavin mononucleotide], the “effectiveness relative to FAD in mediating UVA obliteration of the DOX growth inhibitory effect” value with P388 cells (0.3 μM DOX in PBS, 8 min UVA) amounted to 5 fold. On to superoxide dismutase, for which the “effect on DOX inactivation by riboflavin or riboflavin-tyrosine and UVA” value in data set [1] (300 U/ml SOD, 20 μM DOX in PBS) is “accelerates the rate at which DOX is inactivated”.

Consider `NC(Cc1c[nH]c2ccccc12)C(=O)O` (stereo not drawn) [α-Amino-Indole-3-propionic acid], for which the “photoenhancing effect” value in data set [1] (20 μM DOX) is listed as “enhanced”. In data set [1] (100 μM tryptophan, 20 μM DOX, 0.5 μM riboflavin in PBS), the “effect on destruction of DOX in a riboflavin formulation by UVA irradiation” value was “enhanced”.

As to `COc1cccc2c1C(=O)c1c(O)c3c(c(O)c1C2=O)C[C@@](O)(C(=O)CO)C[C@@H]3O[C@H]1C[C@H](N)[C@H](O)[C@H](C)O1.Cl` [DOX, Doxorubicin HCl, reference compound], in data set [1] (20 μM DOX in RPMI medium 1640 without phenol red, 50 mM HEPES pH 7.2, UVA), the “first order rate constant of the decrease in DOX absorbance (KDOX)” value was 0.000417 s⁻¹. The “UVA irradiation required to destroy the DOX absorbance spectrum” value in data set [1] (20 μM DOX, 2 μM riboflavin and 5 nM DABCO (FIG. 12)) was determined as 20 min. The “UVA irradiation required to eliminate the DOX absorbance spectrum” value in data set [1] (20 μM DOX, 20 μM riboflavin, 5 mM DABCO in PBS (FIG. 13B)) is on record as “less than 2 minutes”. Besides, the “time in which the DOX absorbance spectrum disappeared” value in data set [1] (20 μM DOX, 20 μM riboflavin, 5 mM DABCO, PBS without Ca2+ and Mg2+ (FIG. 13C)) is listed as “less than 1 minute”. Take `O=C1O[C@H]([C@@H](O)CO)C(O)=C1O` [ascorbate, ascorbic acid]: the “effect on the UVA-induced decrease of DOX absorbance” value in data set [1] (0.16 mM ascorbate, 20 μM DOX in RPMI medium 1640) was “this decrease was smaller”; in data set [1] (1.6 mM ascorbate, 20 μM DOX in RPMI medium 1640, 20 minutes of irradiation), “no changes in the absorbance spectrum of DOX”. For the molecule `O=S(=O)(O)CCN1CCN(CCO)CC1` [HEPES, N-2-hydroxyethylpiperazine-N′-2-ethanesulfonic acid], the “effect on riboflavin-mediated photoinactivation of DOX” value in data set [1] (5 mM HEPES, 20 μM DOX, riboflavin in PBS) is “accelerate the riboflavin-mediated photoinactivation of DOX”. Turning to `CSCC[C@H](N)C(=O)O` [Methionine], the “photoenhancing effect” value in data set [1] (20 μM DOX) is given as “enhanced”.

Turning to catalase, the “effect on the rate of destruction of DOX by UVA irradiation” value in data set [1] (150 units/ml catalase, 20 μM DOX in RPMI medium 1640) is “did not affect the rate of destruction of DOX”. Moreover, the “protection of cells from damage (inhibition of growth) by protracted UVA irradiation” value in data set [3] is recorded as “protected the cells from damage”. Also, the “interference with the growth inhibitory effect of DOX” value in data set [4] is “does not interfere with the growth inhibitory effect of DOX”.

In the case of `Cc1cc2nc3c(=O)[nH]c(=O)nc-3n(C[C@H](O)[C@H](O)[C@H](O)COP(=O)(O)OP(=O)(O)OC[C@H]3O[C@@H](n4cnc5c(N)ncnc54)[C@H](O)[C@@H]3O)c2cc1C` [FAD, flavin adenine dinucleotide], the “effectiveness in mediating the UVA inactivation of DOX compared with riboflavin” value in data set [1] (in the presence or absence of DABCO) is “not as effective as riboflavin”. Further, in the data set with P388 cells (UVA effect on DOX), the “raise of concentration needed to obtain an effect comparable to riboflavin or FMN” value was 5 fold. As to `N[C@@H](Cc1ccccc1)C(=O)O` [Phenylalanine], in data set [2], the “Half-Life of ADR Destruction, 100 μM Test Compound and 0.5 μM Riboflavin” value was 75.3 min. Further, the “photoenhancing effect” value in data set [1] (20 μM DOX) is given as “did not enhance”. As for `OCc1ccc2ccccc2c1` [2-Naphthalenemethanol], in data set [2], the “Half-Life of ADR Destruction, 100 μM Test Compound and 0.5 μM Riboflavin” value is 50.2 min.

Turning to `C1CCNC1` [Pyrrolidine], the “Half-Life of ADR Destruction, 100 μM Test Compound and 0.5 μM Riboflavin” value in data set [2] was found to be 50.2 min. On the same count and under the same terms, the value for `CCc1ccc(N)cc1` [4-Ethyl Aniline] was 10.4 min.

As to `CC(=O)c1ccccc1O` [2′-Hydroxyacetophenone], in data set [2], the “Half-Life of ADR Destruction, 100 μM Test Compound” value was determined as 50.2 min; the “Half-Life of ADR Destruction, 100 μM Test Compound and 0.5 μM Riboflavin” value is 43.0 min.

In the case of `OCCc1ccccc1` [Phenylethyl Alcohol], the “Half-Life of ADR Destruction, 100 μM Test Compound” value in data set [2] is 43.0 min.

As for `COc1ccc2cc(CC(=O)O)ccc2c1` [6-Methoxynaphthalene-2-acetic acid], in data set [2], the “Half-Life of ADR Destruction, 100 μM Test Compound” value was 17.7 min; the “Half-Life of ADR Destruction, 100 μM Test Compound and 0.5 μM Riboflavin” value was determined as 5.38 min. For `COc1ccccc1O` [2-Methoxy Phenol] the same measures were 50.2 min and 50.2 min. In the same order, the values of `O=c1nc2[nH]c3ccccc3nc-2c(=O)[nH]1` [Alloxazine] are 2.21 min and 1.89 min. For the molecule `Cc1ccc2cc[nH]c2c1` [6-Methyl Indole], the “Half-Life of ADR Destruction, 100 μM Test Compound and 0.5 μM Riboflavin” value in data set [2] was 24.2 ± 1.3 min.

As for `CCCCCCc1ccc(N)cc1` [4-Hexyl Aniline], the “Half-Life of ADR Destruction, 100 μM Test Compound and 0.5 μM Riboflavin” value in data set [2] was determined as 5.28 min. For `COc1ccc(CC(=O)O)cc1` [4-Methoxy Phenylacetic Acid], in data set [2], the “Half-Life of ADR Destruction, 100 μM Test Compound” value is 50.2 min; the “Half-Life of ADR Destruction, 100 μM Test Compound and 0.5 μM Riboflavin” value was 30.1 min.

Consider `NCCc1ccc(O)cc1` [4-Hydroxy Phenethylamine (Tyramine), 4-Hydroxy Phenethylamine], for which, in data set [2], the “Half-Life of ADR Destruction, 100 μM Test Compound and 0.5 μM Riboflavin” value came to 33.5 min. Consider `N[C@@H](Cc1ccc(O)cc1)C(=O)O` [4-Hydroxy Phenylalanine (Tyrosine), 4-Hydroxy Phenylalanine], for which the “photoenhancing effect” value in data set [1] (20 μM DOX) was “enhanced; also recorded: greatest photenhancing effect”. The “effect on the absorbance spectrum of DOX under UVA without riboflavin” value in data set [1] (100 μM tyrosine, 20 μM DOX in PBS pH 7.2) was “essentially no impact on the absorbance spectrum of DOX”.

Regarding `CC(O)c1ccc2ccccc2c1` (stereo not drawn) [α-Methyl-2-naphthalenemethanol], in data set [2], the “Half-Life of ADR Destruction, 100 μM Test Compound” value turned out to be 43.0 min; the “Half-Life of ADR Destruction, 100 μM Test Compound and 0.5 μM Riboflavin” value was determined as 33.5 min. For `COc1ccc2c(C(=O)O)cccc2c1` [6-Methoxynaphthalene-1-carboyxlic acid] the same measures were 18.8 min and 4.49 min.

On to `Nc1ccccc1CO` [2-Amino Benzyl Alcohol], for which the “Half-Life of ADR Destruction, 100 μM Test Compound and 0.5 μM Riboflavin” value in data set [2] turned out to be 3.96 min.
